Measured values taken from patent publication US10294202B2, “Pyrrolidinones as herbicides” (FMC Corporation, priority 2013, dated 2019).

Assays:
barnyardgrass [1] = experiment: Test A pre-/postemergence herbicide test; assay type: in vivo, Echinochloa crus-galli
Outline: (§1)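 Visual 0–100 ratings (100 = complete control) made about 10 days after treatment, greenhouse-held plants compared with untreated controls. Treatments: postemergence sprays on one- to two-leaf plants (2–10 cm tall) and preemergence directed soil sprays after planting in loam–sand, chemicals formulated in non-phytotoxic solvent containing surfactant.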

crabgrass, large = experiment: Test A pre-/postemergence herbicide test; assay type: in vivo, Digitaria sanguinalis
Outline: as §1

giant foxtail = experiment: Test A pre-/postemergence herbicide test; assay type: in vivo, Setaria faberii
Outline: as §1

morningglory = experiment: Test A pre-/postemergence herbicide test; assay type: in vivo, Ipomoea spp.
Outline: as §1

pigweed = experiment: Test A pre-/postemergence herbicide test; assay type: in vivo, Amaranthus retroflexus
Outline: as §1

velvetleaf = experiment: Test A pre-/postemergence herbicide test; assay type: in vivo, Abutilon theophrasti
Outline: as §1

wheat = experiment: Test A pre-/postemergence herbicide test; assay type: in vivo, Triticum aestivum
Outline: as §1

corn = experiment: Test A pre-/postemergence herbicide test; assay type: in vivo, Zea mays
Outline: as §1

rice = experiment: Test B flooded paddy test; assay type: in vivo, Oryza sativa; settings: Flood, scale of 0 to 100 where 0 is no effect and 100 is complete control
Protocol: (§2) Plant species in the flooded paddy test selected from rice (Oryza sativa), sedge, umbrella (small-flower umbrella sedge, Cyperus difformis), ducksalad (Heteranthera limosa), and barnyardgrass (Echinochloa crus-galli) were grown to the 2-leaf stage for testing. At time of treatment, test pots were flooded to 3 cm above the soil surface, treated by application of test compounds directly to the paddy water, and then maintained at that water depth for the duration of the test. Treated plants and controls were maintained in a greenhouse for 13 to 15 days, after which time all species were compared to controls and visually evaluated. Plant response ratings, summarized in Table B, are based on a scale of 0 to 100 where 0 is no effect and 100 is complete control. A dash (-) response means no test result.

sedge, umbrella = experiment: Test B flooded paddy test; assay type: in vivo, Cyperus difformis; settings: Flood, scale of 0 to 100 where 0 is no effect and 100 is complete control
Protocol: as §2

ducksalad = experiment: Test B flooded paddy test; assay type: in vivo, Heteranthera limosa; settings: Flood, scale of 0 to 100 where 0 is no effect and 100 is complete control
Protocol: as §2

barnyardgrass [2] = experiment: Test B flooded paddy test; assay type: in vivo, Echinochloa crus-galli; settings: Flood, scale of 0 to 100 where 0 is no effect and 100 is complete control
Protocol: as §2

[3] = 125 g ai/ha, visual rating, 0 to 100 scale, 0 no effect, 100 complete control, approximately 10 days, preemergence
[4] = Postemergence, 125 g ai/ha, 0 to 100 scale, 0 is no effect, 100 is complete control
[5] = preemergence, 500 g ai/ha, 0 to 100 scale, 0 is no effect and 100 is complete control
[6] = Postemergence, 1000 g ai/ha, 0 to 100 scale (0 no effect, 100 complete control)
[7] = preemergence, 1000 g ai/ha, 0 to 100 scale
[8] = Postemergence, 125 g ai/ha, 0 to 100 scale, 0 no effect, 100 complete control
[9] = Postemergence, 500 g ai/ha, 0 to 100 scale (0 no effect, 100 complete control)
[10] = Preemergence, 125 g ai/ha, visual rating on 0 to 100 scale (0 no effect, 100 complete control)
[11] = preemergence, 500 g ai/ha, 0 to 100 scale

COc1ccc(C2CNC(=O)C2C(=O)Nc2ccccc2C(F)(F)F)cc1F (racemic) [Compound 199]
Plant response rating, Barnyardgrass (barnyardgrass [1]; [3]): 0
Plant response rating, Barnyardgrass (barnyardgrass [1]; [4]): 50
Barnyardgrass plant response rating (0 to 100 scale, 0 is no effect, 100 is complete control) (barnyardgrass [1]; Postemergence, 500 g ai/ha): 70
Plant response rating, Barnyardgrass (barnyardgrass [1]; [5]): 60
Plant response rating, Crabgrass, Large (crabgrass, large; [3]): 90
Plant response rating, Crabgrass, Large (crabgrass, large; [4]): 60
Crabgrass, Large plant response rating (0 to 100 scale, 0 is no effect, 100 is complete control) (crabgrass, large; Postemergence, 500 g ai/ha): 80
Plant response rating, Crabgrass, Large (crabgrass, large; [5]): 100
Plant response rating, Foxtail, Giant (giant foxtail; [3]): 50
Plant response rating, Foxtail, Giant (giant foxtail; [4]): 0
Foxtail, Giant plant response rating (0 to 100 scale, 0 is no effect, 100 is complete control) (giant foxtail; Postemergence, 500 g ai/ha): 50
Plant response rating, Foxtail, Giant (giant foxtail; [5]): 90
Plant response rating, Morningglory (morningglory; [3]): 0
Plant response rating, Morningglory (morningglory; [4]): 0
Morningglory plant response rating (0 to 100 scale, 0 is no effect, 100 is complete control) (morningglory; Postemergence, 500 g ai/ha): 0
Plant response rating, Morningglory (morningglory; [5]): 0
Plant response rating, Pigweed (pigweed; [3]): 0
Plant response rating, Pigweed (pigweed; [4]): 0
Pigweed plant response rating (0 to 100 scale, 0 is no effect, 100 is complete control) (pigweed; Postemergence, 500 g ai/ha): 0
Plant response rating, Pigweed (pigweed; [5]): 0
Plant response rating, Velvetleaf (velvetleaf; [3]): 0
Plant response rating, Velvetleaf (velvetleaf; [4]): 0
Velvetleaf plant response rating (0 to 100 scale, 0 is no effect, 100 is complete control) (velvetleaf; Postemergence, 500 g ai/ha): 40
Plant response rating, Velvetleaf (velvetleaf; [5]): 0
Plant response rating, Wheat (wheat; [3]): 0
Plant response rating, Wheat (wheat; [4]): 0
Wheat plant response rating (0 to 100 scale, 0 is no effect, 100 is complete control) (wheat; Postemergence, 500 g ai/ha): 0
Plant response rating, Wheat (wheat; [5]): 0
Plant response rating, Corn (corn; [3]): 0
Plant response rating, Corn (corn; [4]): 0
Corn plant response rating (0 to 100 scale, 0 is no effect, 100 is complete control) (corn; Postemergence, 500 g ai/ha): 0
Plant response rating, Corn (corn; [5]): 0
Plant response rating, Rice (rice; 250 g ai/ha): 0
Plant response rating, Rice (rice; 1000 g ai/ha): 0
Plant response rating, Sedge, Umbrella (sedge, umbrella; 250 g ai/ha): 0
Plant response rating, Sedge, Umbrella (sedge, umbrella; 1000 g ai/ha): 0
Plant response rating, Ducksalad (ducksalad; 250 g ai/ha): 90
Plant response rating, Ducksalad (ducksalad; 1000 g ai/ha): 80
Plant response rating, Barnyardgrass (barnyardgrass [2]; 250 g ai/ha): 20
Plant response rating, Barnyardgrass (barnyardgrass [2]; 1000 g ai/ha): 20

O=C1NCC(c2ccc(F)c(F)c2)C1C(=O)Nc1ccc(F)cc1 (racemic) [Compound 193]
Plant response rating, Barnyardgrass (barnyardgrass [1]; [6]): 90
Plant response rating, Barnyardgrass (barnyardgrass [1]; preemergence, 1000 g ai/ha, 0 to 100 scale (0 no effect, 100 complete control)): 80
Plant response rating, Crabgrass, Large (crabgrass, large; [6]): 90
Plant response rating, Crabgrass, Large (crabgrass, large; [7]): 100
Plant response rating, Foxtail, Giant (giant foxtail; [6]): 80
Plant response rating, Foxtail, Giant (giant foxtail; [7]): 90
Plant response rating, Morningglory (morningglory; [6]): 0
Plant response rating, Morningglory (morningglory; [7]): 0
Plant response rating, Pigweed (pigweed; [6]): 0
Plant response rating, Pigweed (pigweed; [7]): 0
Plant response rating, Velvetleaf (velvetleaf; [6]): 0
Plant response rating, Velvetleaf (velvetleaf; [7]): 0
Plant response rating, Wheat (wheat; [6]): 0
Plant response rating, Wheat (wheat; [7]): 0
Plant response rating, Corn (corn; [6]): 0
Plant response rating, Corn (corn; [7]): 0
Plant response rating, Rice (rice; 1000 g ai/ha): 20
Plant response rating, Sedge, Umbrella (sedge, umbrella; 1000 g ai/ha): 20
Plant response rating, Ducksalad (ducksalad; 1000 g ai/ha): 60
Plant response rating, Barnyardgrass (barnyardgrass [2]; 1000 g ai/ha): 0

Cc1cccc(C2CNC(=O)C2C(=O)Nc2ccccc2F)c1 (racemic) [Compound 38]
Plant response rating, Barnyardgrass (barnyardgrass [1]; [8]): 0
Plant response rating, Barnyardgrass (barnyardgrass [1]; [9]): 30
Barnyardgrass plant response rating (barnyardgrass [1]; [10]): 0
Plant response rating, Barnyardgrass (barnyardgrass [1]; preemergence, 500 g ai/ha, 0 to 100 scale (0 no effect, 100 complete control)): 80
Plant response rating, Crabgrass, Large (crabgrass, large; [8]): 0
Plant response rating, Crabgrass, Large (crabgrass, large; [9]): 50
Crabgrass, Large plant response rating (crabgrass, large; [10]): 70
Plant response rating, Crabgrass, Large (crabgrass, large; [11]): 80
Plant response rating, Foxtail, Giant (giant foxtail; [8]): 0
Plant response rating, Foxtail, Giant (giant foxtail; [9]): 20
Foxtail, Giant plant response rating (giant foxtail; [10]): 0
Plant response rating, Foxtail, Giant (giant foxtail; [11]): 30
Plant response rating, Morningglory (morningglory; [8]): 0
Plant response rating, Morningglory (morningglory; [9]): 0
Morningglory plant response rating (morningglory; [10]): 0
Plant response rating, Morningglory (morningglory; [11]): 0
Plant response rating, Pigweed (pigweed; [8]): 0
Plant response rating, Pigweed (pigweed; [9]): 0
Pigweed plant response rating (pigweed; [10]): 0
Plant response rating, Pigweed (pigweed; [11]): 0
Plant response rating, Velvetleaf (velvetleaf; [8]): 0
Plant response rating, Velvetleaf (velvetleaf; [9]): 0
Velvetleaf plant response rating (velvetleaf; [10]): 0
Plant response rating, Velvetleaf (velvetleaf; [11]): 0
Plant response rating, Wheat (wheat; [8]): 0
Plant response rating, Wheat (wheat; [9]): 0
Wheat plant response rating (wheat; [10]): 0
Plant response rating, Wheat (wheat; [11]): 0
Plant response rating, Corn (corn; [8]): 0
Plant response rating, Corn (corn; [9]): 0
Corn plant response rating (corn; [10]): 0
Plant response rating, Corn (corn; [11]): 0
Plant response rating, Rice (rice; 250 g ai/ha): 0
Plant response rating, Sedge, Umbrella (sedge, umbrella; 250 g ai/ha): 0
Plant response rating, Ducksalad (ducksalad; 250 g ai/ha): 0
Plant response rating, Barnyardgrass (barnyardgrass [2]; 250 g ai/ha): 0
